Results as given in patent US11013748B2, “Budesonide prodrug” (University of Nizwa, priority 2019, dated 2021).
Converted amounts (≈) assume the structure as drawn.

Columns and labels:
[1] = Partition coefficient, Hansch method (n-octanol/buffer); type: physicochemical
Description: The Hansch method was used to determine the partition coefficient between the n-octanol and phosphate buffer (both 10 mL) system. Different pH systems of 1.2, 4.0, 6.8, and 7.4, and n-octanol and double distilled water (both 10 mL, pH 5.8) were prepared. The buffers, n-octanol, and double distilled water were added to a separating funnel. The phases were shaken for 60 minutes. to attain saturation. Ten milligrams of Bu and BuP were added to respective separators and were given 30 minutes of shaking for the drug to achieve sufficient distribution in both the phases. The separators were kept still for 5 minutes, and then the phases were separated. The phases were suitably diluted and analyzed (n=6) using the fiber optics with the UV detector set at 232 nm and 340 nm for Bu and BuP, respectively.

[2] = Solubility studies of Bu and BuP in buffer media; type: physicochemical; details: thermodynamic from solid
Description: Solubility studies of the pure Bu and prepared BuP were determined (n=6) by making saturated solutions of HCl buffer, phthalate buffer, phosphate buffer of pH 1.2, 4.0, 6.8 (with and without 10% w/v rat fecal content), and 7.4 respectively. The solutions, kept separately in a conical flask, were subjected to ultrasonic waves in an ultrasonic bath (Sonorex, Bandelin Electronic, Germany) for 30 minutes. Fiber optic probes were inserted at 0 and 30 minutes, and readings taken at 232 nm for Bu and 340 nm for BuP using the fiber optics system

[3] = tested on: colitis in rats; details: literature; cited from earlier work

Row | SMILES | logP ([1]; n-octanol / HCl buffer, pH 1.2) | logP ([1]; n-octanol / double distilled water, pH 5.8) | logP ([1]; n-octanol / phosphate buffer, pH 6.8) | logP ([1]; n-octanol / phosphate buffer, pH 7.4) | logP ([1]; n-octanol / phthalate buffer, pH 4.0) | solubility at 0 min ([2]; aqueous buffer, Phosphate buffer, pH 6.8) [µg/mL] | solubility at 30 min ([2]; aqueous buffer, Phosphate buffer, pH 6.8, 30 min) [µg/mL] | solubility at 0 min ([2]; aqueous buffer, Phosphate buffer, pH 7.4) [µg/mL] | solubility at 30 min ([2]; aqueous buffer, Phosphate buffer, pH 7.4, 30 min) [µg/mL] | solubility at 0 min ([2]; aqueous buffer, Phthalate buffer, pH 4.0) [µg/mL] | solubility at 30 min ([2]; aqueous buffer, Phthalate buffer, pH 4.0, 30 min) [µg/mL] | solubility at 0 min ([2]; phosphate buffer with 10% w/v rat fecal content, plasma or biological fluid, Phosphate buffer, pH 6.8 + rat fecal content) [µg/mL] | solubility at 30 min ([2]; phosphate buffer with 10% w/v rat fecal content, plasma or biological fluid, Phosphate buffer, pH 6.8 + rat fecal content, 30 min) [µg/mL] | solubility at 0 min ([2]; simulated gastric fluid, HCl buffer, pH 1.2) [µg/mL] | solubility at 30 min ([2]; simulated gastric fluid, HCl buffer, pH 1.2, 30 min ultrasonic bath) [µg/mL] | solubility at 0 min ([2]; Double distilled water, pH 5.8) [µg/mL] | solubility at 30 min ([2]; Double distilled water, pH 5.8, 30 min) [µg/mL] | effect on colitis in rats [3]
1 | CCCC1O[C@@H]2C[C@H]3[C@@H]4CCC5=CC(=O)C=C[C@]5(C)[C@H]4[C@@H](O)C[C@]3(C)[C@]2(C(=O)CO)O1 (stereo partly drawn) [Bu, budesonide] | 3.12 ± 0.12 | 2.87 ± 1.05 | 2.51 ± 0.36 | 2.13 ± 1.09 | 3.01 ± 0.54 | 187 ± 1.98 (≈ 435 µM) | 356.9 ± 0.99 (≈ 829 µM) | 231 ± 2.12 (≈ 537 µM) | 476.1 ± 1.99 (≈ 1110 µM) | 68.2 ± 0.98 (≈ 158 µM) | 148 ± 1.32 (≈ 344 µM) | 187.1 ± 0.89 | 356.9 ± 1.76 | 25.1 ± 1.43 (≈ 58.3 µM) | 88.12 ± 0.67 (≈ 205 µM) | 121 ± 1.26 (≈ 281 µM) | 209 ± 2.13 (≈ 486 µM) | –
2 | CCCC1OC2CC3C4CCC5=CC(=O)C=CC5(C)C4C(O)CC3(C)C2(C(=O)COC2OC(C(=O)O)C(O)C(O)C2O)O1 [budesonide-beta-D-glucuronide] | – | – | – | – | – | – | – | – | – | – | – | – | – | – | – | – | – | accelerate the treatment of colitis in rats
